Laboratory results: patent US10336759B2, “Salts and processes of preparing a PI3K inhibitor” (Incyte Corporation, priority 2015, dated 2019)
pIC50: −log10 of the molar value.

Key:
Format in all cases: biochemical
[1] = target: PI3Kα (Homo sapiens (Human), UniProt P42336); assay: PI3K Enzyme Assay (Example A2), PI3Kα; conditions: assay of Example A2, 1000 μM ATP
Experimental: (§1) PI3K isoforms α, β, δ and γ are purchased from Millipore (Bedford, Mass.).
(§2) The kinase reactions are conducted in clear-bottom 96-well plate from Thermo Fisher Scientific in a final volume of 24 μL. Inhibitors are first diluted serially in DMSO and added to the plate wells before the addition of other reaction components. The final concentration of DMSO in the assay is 0.5%. […] The reaction mixture is prepared containing 50 μM PIP2, kinase and varying concentration of inhibitors. […] Reactions are incubated for 180 minutes and terminated by the addition of 100 μL of 1 M potassium phosphate pH 8.0, 30 mM EDTA quench buffer. A 100 μL aliquot of the reaction solution are then transferred to 96-well Millipore MultiScreen IP 0.45 μm PVDF filter plate (The filter plate is prewetted with 200 μL 100% ethanol, distilled water, and 1 M potassium phosphate pH 8.0, respectively). […] After drying by aspiration and blotting, the plate is air dried in an incubator at 37° C. overnight. Packard TopCount adapter (Millipore) is then attached to the plate followed with addition of 120 μL Microscint 20 scintillation cocktail (Perkin Elmer) in each well. After the plate sealing, the radioactivity of the product is determined by scintillation counting on Topcount (Perkin-Elmer). […]

[2] = target: PI3Kγ (Homo sapiens (Human), UniProt P48736); assay: PI3K Enzyme Assay (Example A2), PI3Kγ; conditions: assay of Example A2, 1000 μM ATP
Experimental: as §1, §2

[3] = target: PI3Kβ (Homo sapiens (Human), UniProt P42338); assay: PI3K Enzyme Assay (Example A2), PI3Kβ; conditions: assay of Example A2, 1000 μM ATP
Experimental: as §1, §2

[4] = target: PI3Kδ (Homo sapiens (Human), UniProt O00329); assay: PI3K Enzyme Assay (Example A2), PI3Kδ; conditions: assay of Example A2, 1000 μM ATP
Experimental: as §1, §2

[5] = target: PI3Kδ (p110δ/p85α) (Homo sapiens (Human), UniProt O00329); assay: PI3Kδ Scintillation Proximity Assay (Example A3); conditions: assay of Example A3, 20 μM ATP, 20 μM PIP2
Experimental: The kinase reaction was conducted in polystyrene 384-well matrix white plate from Thermo Fisher Scientific in a final volume of 25 μL. Inhibitors were first diluted serially in DMSO and added to the plate wells before the addition of other reaction components. The final concentration of DMSO in the assay was 0.5%. The PI3K assays were carried out at room temperature in 20 mM MOPS, pH 6.7, 10 mM MgCl2, 5 mM DTT and CHAPS 0.03%. […] IC50 determination was performed by fitting the curve of percent control activity versus the log of the inhibitor concentration using the GraphPad Prism 3.0 software.

Sequence of PI3Kδ (O00329 whole entry): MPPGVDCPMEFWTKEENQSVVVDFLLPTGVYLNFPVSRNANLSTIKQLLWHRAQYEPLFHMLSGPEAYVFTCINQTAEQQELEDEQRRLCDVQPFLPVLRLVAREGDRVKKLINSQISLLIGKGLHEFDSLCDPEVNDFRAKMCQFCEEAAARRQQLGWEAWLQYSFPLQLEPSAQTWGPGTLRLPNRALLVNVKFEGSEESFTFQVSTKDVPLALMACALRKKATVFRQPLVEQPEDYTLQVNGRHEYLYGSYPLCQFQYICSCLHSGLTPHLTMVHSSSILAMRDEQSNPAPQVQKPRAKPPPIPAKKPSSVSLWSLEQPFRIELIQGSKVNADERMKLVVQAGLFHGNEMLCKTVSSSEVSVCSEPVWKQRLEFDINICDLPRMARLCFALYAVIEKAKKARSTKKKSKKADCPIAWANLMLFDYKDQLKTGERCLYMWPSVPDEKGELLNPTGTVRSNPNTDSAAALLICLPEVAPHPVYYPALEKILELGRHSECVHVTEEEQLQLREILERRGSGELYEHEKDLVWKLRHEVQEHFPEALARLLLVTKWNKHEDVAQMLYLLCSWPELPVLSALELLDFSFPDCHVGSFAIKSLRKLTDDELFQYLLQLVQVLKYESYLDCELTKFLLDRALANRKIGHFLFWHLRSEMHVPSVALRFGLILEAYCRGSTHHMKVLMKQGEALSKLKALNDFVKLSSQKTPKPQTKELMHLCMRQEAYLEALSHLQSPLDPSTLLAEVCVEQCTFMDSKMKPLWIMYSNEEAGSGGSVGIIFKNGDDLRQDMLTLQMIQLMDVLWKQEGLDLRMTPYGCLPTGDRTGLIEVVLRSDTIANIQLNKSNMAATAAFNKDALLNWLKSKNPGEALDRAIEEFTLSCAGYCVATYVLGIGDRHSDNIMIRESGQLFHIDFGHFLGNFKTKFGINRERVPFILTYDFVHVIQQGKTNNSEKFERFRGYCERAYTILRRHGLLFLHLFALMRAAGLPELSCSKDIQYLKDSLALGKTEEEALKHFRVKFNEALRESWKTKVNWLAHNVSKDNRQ
Sequence of PI3Kδ (P27986 whole entry partner): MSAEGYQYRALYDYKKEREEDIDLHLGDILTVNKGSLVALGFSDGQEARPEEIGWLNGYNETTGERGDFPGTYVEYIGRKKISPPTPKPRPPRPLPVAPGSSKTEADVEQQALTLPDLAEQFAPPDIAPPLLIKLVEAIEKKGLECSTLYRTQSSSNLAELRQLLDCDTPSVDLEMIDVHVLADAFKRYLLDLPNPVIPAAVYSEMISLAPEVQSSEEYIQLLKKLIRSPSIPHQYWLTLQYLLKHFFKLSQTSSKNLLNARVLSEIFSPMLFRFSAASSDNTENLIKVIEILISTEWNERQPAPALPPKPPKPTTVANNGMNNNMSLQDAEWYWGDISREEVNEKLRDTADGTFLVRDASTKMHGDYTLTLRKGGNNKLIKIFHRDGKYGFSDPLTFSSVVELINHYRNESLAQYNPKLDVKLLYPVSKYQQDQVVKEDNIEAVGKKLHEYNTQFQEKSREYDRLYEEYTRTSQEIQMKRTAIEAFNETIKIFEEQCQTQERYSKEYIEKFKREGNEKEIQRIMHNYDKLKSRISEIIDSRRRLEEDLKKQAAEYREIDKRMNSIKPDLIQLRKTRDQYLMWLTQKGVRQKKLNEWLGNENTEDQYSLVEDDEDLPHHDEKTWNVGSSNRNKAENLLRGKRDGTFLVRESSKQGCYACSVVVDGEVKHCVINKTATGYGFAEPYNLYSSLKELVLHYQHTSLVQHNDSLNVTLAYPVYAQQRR
Sequence of PI3Kδ (p110δ/p85α) (O00329 whole entry): as the sequence (O00329 whole entry) above
Sequence of PI3Kδ (p110δ/p85α) (P27986 whole entry partner): as the sequence (P27986 whole entry partner) above
Sequence of PI3Kα (P42336 whole entry, canonical isoform): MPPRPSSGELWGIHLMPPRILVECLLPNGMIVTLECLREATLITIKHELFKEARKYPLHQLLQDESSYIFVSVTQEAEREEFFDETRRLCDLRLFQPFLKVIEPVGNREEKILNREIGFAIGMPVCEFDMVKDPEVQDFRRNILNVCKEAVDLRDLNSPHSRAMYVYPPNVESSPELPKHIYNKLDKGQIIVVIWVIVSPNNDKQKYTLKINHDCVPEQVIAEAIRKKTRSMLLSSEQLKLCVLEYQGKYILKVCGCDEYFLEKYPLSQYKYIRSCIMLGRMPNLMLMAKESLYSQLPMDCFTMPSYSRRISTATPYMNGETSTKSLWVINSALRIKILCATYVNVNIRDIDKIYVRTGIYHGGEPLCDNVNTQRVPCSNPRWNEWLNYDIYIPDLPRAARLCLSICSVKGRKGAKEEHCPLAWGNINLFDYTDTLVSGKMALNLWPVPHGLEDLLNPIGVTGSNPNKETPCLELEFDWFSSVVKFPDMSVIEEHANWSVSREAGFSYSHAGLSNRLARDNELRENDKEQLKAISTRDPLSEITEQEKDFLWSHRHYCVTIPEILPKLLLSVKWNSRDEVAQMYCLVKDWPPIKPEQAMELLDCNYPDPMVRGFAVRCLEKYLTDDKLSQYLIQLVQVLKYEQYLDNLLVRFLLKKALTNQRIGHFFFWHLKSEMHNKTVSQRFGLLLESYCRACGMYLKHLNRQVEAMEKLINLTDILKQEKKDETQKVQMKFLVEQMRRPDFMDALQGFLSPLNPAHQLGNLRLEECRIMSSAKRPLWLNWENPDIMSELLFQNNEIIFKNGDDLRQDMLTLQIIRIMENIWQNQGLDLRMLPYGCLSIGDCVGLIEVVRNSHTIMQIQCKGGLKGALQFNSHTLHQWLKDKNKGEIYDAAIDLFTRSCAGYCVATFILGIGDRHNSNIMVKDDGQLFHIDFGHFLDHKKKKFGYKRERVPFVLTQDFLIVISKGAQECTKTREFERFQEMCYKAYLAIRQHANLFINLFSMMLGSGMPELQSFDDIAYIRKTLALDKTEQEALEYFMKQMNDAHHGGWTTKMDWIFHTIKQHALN
Sequence of PI3Kα (P27986 whole entry partner, canonical isoform): as the sequence (P27986 whole entry partner) above
Sequence of PI3Kβ (P42338 whole entry): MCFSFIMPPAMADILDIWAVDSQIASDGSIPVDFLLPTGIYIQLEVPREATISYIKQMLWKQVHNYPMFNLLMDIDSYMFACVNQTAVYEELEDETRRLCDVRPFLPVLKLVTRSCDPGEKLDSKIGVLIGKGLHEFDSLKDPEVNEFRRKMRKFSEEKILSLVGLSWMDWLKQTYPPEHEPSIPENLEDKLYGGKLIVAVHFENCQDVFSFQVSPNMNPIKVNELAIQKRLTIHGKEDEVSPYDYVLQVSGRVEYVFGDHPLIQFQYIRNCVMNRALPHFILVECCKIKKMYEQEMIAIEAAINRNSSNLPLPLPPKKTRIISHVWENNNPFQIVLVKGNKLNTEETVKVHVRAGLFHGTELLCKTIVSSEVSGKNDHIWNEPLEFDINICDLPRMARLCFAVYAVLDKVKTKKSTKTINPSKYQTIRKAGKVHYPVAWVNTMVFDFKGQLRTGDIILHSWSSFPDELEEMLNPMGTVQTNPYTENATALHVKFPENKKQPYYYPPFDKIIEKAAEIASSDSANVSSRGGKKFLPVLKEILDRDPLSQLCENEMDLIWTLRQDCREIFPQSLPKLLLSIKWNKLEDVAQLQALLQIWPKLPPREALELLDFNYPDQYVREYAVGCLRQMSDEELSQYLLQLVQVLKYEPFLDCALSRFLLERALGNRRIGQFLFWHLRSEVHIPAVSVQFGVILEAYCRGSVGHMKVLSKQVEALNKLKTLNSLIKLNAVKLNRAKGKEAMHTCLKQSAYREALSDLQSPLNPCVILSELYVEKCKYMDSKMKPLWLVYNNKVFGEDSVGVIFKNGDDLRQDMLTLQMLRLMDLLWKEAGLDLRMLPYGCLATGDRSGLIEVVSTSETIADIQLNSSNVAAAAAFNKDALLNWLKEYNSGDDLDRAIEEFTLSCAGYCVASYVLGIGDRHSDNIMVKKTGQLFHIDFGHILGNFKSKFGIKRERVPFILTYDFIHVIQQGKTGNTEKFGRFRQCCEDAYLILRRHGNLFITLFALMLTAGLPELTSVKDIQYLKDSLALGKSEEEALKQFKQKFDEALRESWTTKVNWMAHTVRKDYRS
Sequence of PI3Kβ (P27986 whole entry partner): as the sequence (P27986 whole entry partner) above

Row | fold selectivity for PI3Kδ over PI3Kα [1] | fold selectivity for PI3Kδ over PI3Kγ [2] | fold selectivity for PI3Kδ over PI3Kβ [3] | selectivity for PI3Kδ [4] | pIC50 [5] | SMILES
1 | > 100 fold | > 100 fold | > 100 fold | selective inhibitor for PI3Kδ | – | CCOc1c([C@H](C)n2nc(C)c3c(N)ncnc32)cc(Cl)c(F)c1[C@@H]1CNC(=O)C1.Cl [(R)-4-(3-((S)-1-(4-amino-3-methyl-1H-pyrazolo[3,4-d]pyrimidin-1-yl)ethyl)-5-chloro-2-ethoxy-6-fluorophenyl)pyrrolidin-2-one hydrochloride]
2 | – | – | – | – | ≥ 8.00 | CCOc1c([C@H](C)n2nc(C)c3c(N)ncnc32)cc(Cl)c(F)c1[C@@H]1CNC(=O)C1 [compound of Formula I, (R)-4-(3-((S)-1-(4-amino-3-methyl-1H-pyrazolo[3,4-d]pyrimidin-1-yl)ethyl)-5-chloro-2-ethoxy-6-fluorophenyl)pyrrolidin-2-one]
